Six molecules from patent US5489592A, “3,4-dihydro-4-oxo-3-(2-propenyl)-1-phthalazineacetic acids and derivatives, their preparations and medicines containing them” (Lipha, Lyonnaise Industrielle Pharmaceutique, priority 1991, dated 1996) can be followed below.

The subject of test [1] is level of sorbitol in the crystallins. Kind of test: In vivo study: reduction in the accumulation of sorbitol in streptozotocin-diabetic rats. Details: species or system male Wistar rats. To be noted: Rattus norvegicus, oral, 4, 30 and 52 h after streptozotocin (60 mg/kg i.v.), 50% reduction, confidence interval in parentheses. The protocol: 2) In vivo study: reduction in the accumulation of sorbitol
Male Wistar rats, weighing 200 to 250 g, are made diabetic by intravenous injection of streptozotocin (60 mg/kg). They then receive an oral treatment of the products to be tested, in the form of a 10% suspension in gum arabic, 4 hours, 30 hours and 52 hours after injection of streptozotocin. Eighteen hours after the last oral treatment, the rats are stunned and decapitated and their crystallins are then withdrawn. After extraction, the level of sorbitol in the crystallins is measured according to the enzymatic method described by H. U. Bergmeyer (Methods of Enzymatic Analysis, edited by H. U. Bergmeyer, Academic Press, New York, 3, p. 1323, 1974).
Various doses of products are tested and the inhibitions are calculated with respect to a control batch of diabetic rats. The dose necessary for a 50% reduction in the level of sorbitol is then evaluated by linear interpolation.

Test [2] concerns the target T1, aldose reductase (Rattus norvegicus, UniProt P07943).
T1 construct: The aldose reductase used is obtained from crystallins from male Wistar rats; from tissue; host or cells: eye lens of male Wistar rats, enzymatic extract
Briefly: In vitro study: inhibition of aldose reductase. It is filed as biochemical, male Wistar rats. The settings on record: rat crystallin enzyme, NADPH, L-glyceraldehyde, 340 nm; confidence interval in parentheses. The protocol: 1) In vitro study: inhibition of aldose reductase
The aldose reductase used is obtained from crystallins from male Wistar rats according to a modification of the method of S. Hayman et al. (Journal of Biological Chemistry, 240, p. 877, 1965). The enzymatic extract is diluted in a phosphate buffer in the presence of NADPH and of various concentrations of the products to be tested. The reaction is triggered by L-glyceraldehyde and the rate of reaction is measured by monitoring the disappearance of NADPH by spectrophotometry at 340 nm. The inhibition of the rate of reaction is calculated for each concentration of products and then the concentration necessary for a 50% inhibition (IC50) is evaluated by linear interpolation.

As a reminder, the ED50 is the midpoint of the dose-response relation. In general, IC50 refers to the concentration at which inhibition is half-maximal. Consider `O=C(O)Cc1nn(C/C=C/c2cccc(C(F)(F)F)c2F)c(=O)c2ccccc12` [Example B1, (E) -3-[3-[2-fluoro-3-(trifluoromethyl)phenyl]-2-propenyl]-3,4-dihydro-4-oxo-1-phthalazineacetic acid], for which the ED50 in test [1] came to 4.8 mg/kg. Moreover, in test [2], the IC50 turned out to be 10.2 nM.
Take `O=C(O)Cc1nn(C/C=C/c2c(F)ccc(F)c2F)c(=O)c2ccccc12` [Example B38, (E) -3-[3-(2,3,6-trifluorophenyl)-2-propenyl]-3,4-dihydro-4-oxo-1-phthalazineacetic acid]: in test [1], the ED50 stood at 4.7 mg/kg. In addition, the IC50 in test [2] came to 8.9 nM.
Consider `O=C(O)Cc1nn(C/C=C/c2c(F)ccc(Br)c2F)c(=O)c2ccccc12` [Example B40, (E) -3-[3-(3-bromo-2,6-difluorophenyl)-2-propenyl]-3,4-dihydro-4-oxo-1-phthalazineacetic acid], for which the ED50 in test [1] stood at 6.1 mg/kg. Moreover, in test [2], the IC50 turned out to be 8.2 nM.
Regarding `O=C(O)Cc1nn(C/C=C/c2c(F)ccc(C(F)(F)F)c2F)c(=O)c2ccccc12` [Example B41, (E) -3-[3-[2,6-difluoro-3-(trifluoromethyl)phenyl]-2-propenyl]-3,4-dihydro-4-oxo-1-phthalazineacetic acid], the ED50 in test [1] amounted to 4.4 mg/kg. The IC50 in test [2] is 8.6 nM.
Regarding `O=C(O)Cc1nn(C/C=C/c2c(F)c(F)cc(F)c2F)c(=O)c2ccccc12` [Example B43, (E) -3-[3-(2,3,5,6-tetrafluorophenyl)-2-propenyl]-3,4-dihydro-4-oxo-1-phthalazineacetic acid], the ED50 in test [1] stood at 5.8 mg/kg. The IC50 in test [2] turned out to be 9.6 nM.
Taken in the same sequence, the figures for `O=C(O)Cc1nn(C/C(F)=C/c2cccc(C(F)(F)F)c2)c(=O)c2ccccc12` [Example B49, (Z) -3-[2-fluoro-3-[3-(trifluoromethyl)phenyl]-2-propenyl]-3,4-dihydro-4-oxo-1-phthalazineacetic acid] were 8.2 mg/kg and 8.4 nM.
